According to US11999728B2, “Estrogen receptor modulators” (Recurium IP Holdings, LLC, priority 2020, dated 2024):

Tested on: MCF7
Experiment: Breast Cancer Cell Proliferation Assay (MCF-7), Cell Titer-Glo
Format: cell-based
Details: Homo sapiens, 120 h, MCF7 cells, 5 days of compound exposure
Description: Breast Cancer Cell Proliferation Assay (MCF-7)
MCF7 was expanded and maintained in the medium (Phenol red free DMEM/F12 (Hyclone SH30272.01) NEAA (Gibco11140-050) Na-pyruvate (Gibco 11360-070) and Re-stripped Charcoal stripped FBS (Gemini 100-119)). The cells were adjusted to a concentration of 3,000 cells per mL in the above media, and the cells were incubated (37° C., 5% CO2). The following day a 10-point, serial dilution of compounds was added to the cells at a final concentration ranging from 10-0.000005 μM for test compounds (17β-estradiol was used as a control). Additional cells were plated in 30 wells to serve as the day 1 (pretreatment) comparison. After 5 days of compound exposure, Cell Titer-Glo reagent was added to the cells and the relative luminescence units (RLUs) of each well was determined. Cell Titer-Glo was also added to 32 μL of medium without cells to obtain a background value. The plates were allowed to incubate at room temperature for 10 minutes to stabilize luminescent signal and the luminescence signal was recorded with EnSpire. The relative increase in cell number of each sample is determined as follows: (RLU sample-RLU background/RLU estrogen only treated cells-RLU background)×100=% inhibition.

Row | Compound | IC50 [µM]
1 | C[C@@H]1Cc2c([nH]c3ccccc23)[C@@H](c2ccc(NC3CN(CCC#N)C3)cn2)N1C12CC(C1)C2 [Compound 4, 3-(3-((6-((1S,3R)-2-(bicyclo[1.1.1]pentan-1-yl)-3-methyl-2,3,4,9-tetrahydro-1H-pyrido[3,4-b]indol-1-yl)pyridin-3-yl)amino)azetidin-1-yl)propanenitrile] | 0.025 to 0.25

Same assay, conditions: Homo sapiens, MCF7, 120 h, MCF7 cells, 5 days of compound exposure

Row | Compound | IC50 [µM]
2 | C[C@@H]1Cc2c([nH]c3ccccc23)[C@@H](c2ccc(N[C@@H]3CN(CCCF)C[C@@H]3F)cc2)N1C12CC(C1)C2 (single isomer, unassigned) [Compound 73] | ≤ 0.025
3 | C[C@@H]1Cc2c([nH]c3ccccc23)[C@@H](c2c(F)cc(NC3CN(CCCF)C3)cc2F)N1C12CC(C(N)=O)(C1)C2 (single isomer, unassigned) [Compound 76] | 0.025 to 0.25
4 | C[C@H]1Cc2c([nH]c3ccccc23)[C@H](c2c(F)cc(NC3CN(CCCF)C3)cc2F)N1C12CC(C(N)=O)(C1)C2 (single isomer, unassigned) [Compound 77] | ≥ 0.25
5 | C[C@H](F)CN1CC(Nc2ccc([C@@H]3c4[nH]c5ccccc5c4C[C@@H](C)N3C34CC(C3)C4)cc2)C1 (single isomer, unassigned) [Compound 83] | ≤ 0.025
6 | C[C@H]1Cc2c([nH]c3ccccc23)[C@H](c2c(F)cc(O[C@H]3CCN(CCCF)C3)cc2F)N1C12CC(C#N)(C1)C2 (single isomer, unassigned) [Compound 90] | ≥ 0.25
7 | C[C@@H]1Cc2c([nH]c3ccccc23)[C@@H](c2ncc(NC3CN(CCCF)C3)cc2F)N1C12CC(C1)C2 [Compound 13, 6-((1S,3R)-2-(bicyclo[1.1.1]pentan-1-yl)-3-methyl-2,3,4,9-tetrahydro-1H-pyrido[3,4-b]indol-1-yl)-5-fluoro-N-(1-(3-fluoropropyl)azetidin-3-yl)pyridin-3-amine] | ≤ 0.025
8 | C[C@@H]1Cc2c([nH]c3ccccc23)[C@@H](c2ncc(OC3CN(CCCF)C3)cc2F)N1C12CC(C1)C2 [Compound 14, (1S,3R)-2-(bicyclo[1.1.1]pentan-1-yl)-1-(3-fluoro-5-((1-(3-fluoropropyl)azetidin-3-yl)oxy)pyridin-2-yl)-3-methyl-2,3,4,9-tetrahydro-1H-pyrido[3,4-b]indole] | ≤ 0.025
9 | C[C@@H]1Cc2c([nH]c3ccccc23)[C@@H](c2ccc(N[C@H]3CCN(CCCF)C3)nc2)N1C12CC(C1)C2 [Compound 20, 5-((1R,3R)-2-(bicyclo[1.1.1]pentan-1-yl)-3-methyl-2,3,4,9-tetrahydro-1H-pyrido[3,4-b]indol-1-yl)-N—((S)-1-(3-fluoropropyl)pyrrolidin-3-yl)pyridin-2-amine] | ≤ 0.025
10 | C[C@@H]1Cc2c([nH]c3ccccc23)[C@@H](c2c(F)cc(NCCN3CCCC3)cc2F)N1C12CC(C1)C2 [Compound 22, 4-((1R,3R)-2-(bicyclo[1.1.1]pentan-1-yl)-3-methyl-2,3,4,9-tetrahydro-1H-pyrido[3,4-b]indol-1-yl)-3,5-difluoro-N-(2-(pyrrolidin-1-yl)ethyl)aniline] | 0.025 to 0.25
11 | C[C@@H]1Cc2c([nH]c3ccccc23)[C@@H](c2c(F)cc(OC3CN(CCCF)C3)cc2F)N1C12CC(C1)C2 [Compound 23, (1R,3R)-2-(bicyclo[1.1.1]pentan-1-yl)-1-(2,6-difluoro-4-((1-(3-fluoropropyl)azetidin-3-yl)oxy)phenyl)-3-methyl-2,3,4,9-tetrahydro-1H-pyrido[3,4-b]indole] | ≤ 0.025
12 | C[C@@H]1Cc2c([nH]c3ccccc23)[C@@H](c2ccc(OCCN3CC(CF)C3)cc2F)N1C12CC(C1)C2 [Compound 25, (1R,3R)-2-(bicyclo[1.1.1]pentan-1-yl)-1-(2-fluoro-4-(2-(3-(fluoromethyl)azetidin-1-yl)ethoxy)phenyl)-3-methyl-2,3,4,9-tetrahydro-1H-pyrido[3,4-b]indole] | ≤ 0.025
13 | C[C@@H]1Cc2c([nH]c3ccccc23)[C@@H](c2c(F)cc(OCCN3CCCC3)cc2F)N1C12CC(C1)C2 [Compound 26, (1R,3R)-2-(bicyclo[1.1.1]pentan-1-yl)-1-(2,6-difluoro-4-(2-(pyrrolidin-1-yl)ethoxy)phenyl)-3-methyl-2,3,4,9-tetrahydro-1H-pyrido[3,4-b]indole] | ≥ 0.25
14 | C[C@@H]1Cc2c([nH]c3ccccc23)[C@@H](c2ccc(NCCN3CCC(F)C3)nc2)N1C12CC(C1)C2 (stereo partly drawn) [Compound 28, 5-((1R,3R)-2-(bicyclo[1.1.1]pentan-1-yl)-3-methyl-2,3,4,9-tetrahydro-1H-pyrido[3,4-b]indol-1-yl)-N-(2-(3-fluoropyrrolidin-1-yl)ethyl)pyridin-2-amine] | ≥ 0.25
15 | C[C@@H]1Cc2c([nH]c3ccccc23)[C@@H](c2ccc(NCCN3CCC(CF)C3)nc2)N1C12CC(C1)C2 (stereo partly drawn) [Compound 29, 5-((1R,3R)-2-(bicyclo[1.1.1]pentan-1-yl)-3-methyl-2,3,4,9-tetrahydro-1H-pyrido[3,4-b]indol-1-yl)-N-(2-(3-(fluoromethyl)pyrrolidin-1-yl)ethyl)pyridin-2-amine] | ≥ 0.25
16 | C[C@@H]1Cc2c([nH]c3ccccc23)[C@@H](c2cnc(NC3CN(CCCF)C3)c(F)c2)N1C12CC(C1)C2 [Compound 41, 5-((1R,3R)-2-(bicyclo[1.1.1]pentan-1-yl)-3-methyl-2,3,4,9-tetrahydro-1H-pyrido[3,4-b]indol-1-yl)-3-fluoro-N-(1-(3-fluoropropyl)azetidin-3-yl)pyridin-2-amine] | ≥ 0.25
17 | C[C@@H]1Cc2c([nH]c3ccccc23)[C@@H](c2cnc(N[C@H]3CCN(CCCF)C3)cn2)N1C12CC(C1)C2 [Compound 44, 5-((1S,3R)-2-(bicyclo[1.1.1]pentan-1-yl)-3-methyl-2,3,4,9-tetrahydro-1H-pyrido[3,4-b]indol-1-yl)-N—((S)-1-(3-fluoropropyl)pyrrolidin-3-yl)pyrazin-2-amine] | ≥ 0.25
18 | C#CCN1CC(Nc2ccc([C@@H]3c4[nH]c5ccccc5c4C[C@@H](C)N3C34CC(C3)C4)nc2)C1 [Compound 48, 6-((1S,3R)-2-(bicyclo[1.1.1]pentan-1-yl)-3-methyl-2,3,4,9-tetrahydro-1H-pyrido[3,4-b]indol-1-yl)-N-(1-(prop-2-yn-1-yl)azetidin-3-yl)pyridin-3-amine] | ≤ 0.025

Next, values leading:

Row | IC50 [µM] | Compound
19 | 0.025 to 0.25 | C[C@@H]1Cc2c([nH]c3ccccc23)[C@@H](c2ccc(N[C@H]3CN(CCCF)C[C@@H]3O)cc2)N1C12CC(C1)C2 (single isomer, unassigned) [Compound 79]
20 | ≤ 0.025 | C[C@@H]1Cc2c([nH]c3ccccc23)[C@@H](c2ccc(N[C@@H]3CN(CCCF)C[C@H]3O)cc2)N1C12CC(C1)C2 (single isomer, unassigned) [Compound 80]
21 | ≤ 0.025 | CCCN1C[C@H](F)[C@H](Nc2ccc([C@@H]3c4[nH]c5ccccc5c4C[C@@H](C)N3C34CC(C3)C4)cc2)C1 (single isomer, unassigned) [Compound 85]
22 | 0.025 to 0.25 | CCCN1C[C@@H](F)[C@@H](Nc2ccc([C@@H]3c4[nH]c5ccccc5c4C[C@@H](C)N3C34CC(C3)C4)cc2)C1 (single isomer, unassigned) [Compound 86]
23 | ≤ 0.025 | C[C@@H]1Cc2c([nH]c3ccccc23)[C@@H](c2ccc(OCCN3CC(CF)C3)cc2)N1C12CC(C1)C2 [Compound 24, (1R,3R)-2-(bicyclo[1.1.1]pentan-1-yl)-1-(4-(2-(3-(fluoromethyl)azetidin-1-yl)ethoxy)phenyl)-3-methyl-2,3,4,9-tetrahydro-1H-pyrido[3,4-b]indole]
24 | ≥ 0.25 | CCCN1CC(Nc2ccc([C@@H]3c4[nH]c5ccccc5c4C[C@@H](C)N3C34CC(C3)C4)cn2)C1 [Compound 30, 5-((1R,3R)-2-(bicyclo[1.1.1]pentan-1-yl)-3-methyl-2,3,4,9-tetrahydro-1H-pyrido[3,4-b]indol-1-yl)-N-(1-propylazetidin-3-yl)pyridin-2-amine]
25 | ≤ 0.025 | C[C@@H]1Cc2c([nH]c3ccccc23)[C@@H](c2ccc(OC3CN(CCCF)C3)cc2)N1C12CC(C1)C2 [Compound 38, (1R,3R)-2-(bicyclo[1.1.1]pentan-1-yl)-1-(4-((1-(3-fluoropropyl)azetidin-3-yl)oxy)phenyl)-3-methyl-2,3,4,9-tetrahydro-1H-pyrido[3,4-b]indole]
26 | 0.025 to 0.25 | CCCN1CC(Oc2ccc([C@@H]3c4[nH]c5ccccc5c4C[C@@H](C)N3C34CC(C3)C4)cn2)C1 [Compound 43, (1R,3R)-2-(bicyclo[1.1.1]pentan-1-yl)-3-methyl-1-(6-((1-propylazetidin-3-yl)oxy)pyridin-3-yl)-2,3,4,9-tetrahydro-1H-pyrido[3,4-b]indole]
27 | ≥ 0.25 | C[C@@H]1Cc2c([nH]c3ccccc23)[C@@H](c2ccc(OC3CN(CCO)C3)cc2)N1C12CC(C1)C2 [Compound 46, 2-(3-(4-((1R,3R)-2-(bicyclo[1.1.1]pentan-1-yl)-3-methyl-2,3,4,9-tetrahydro-1H-pyrido[3,4-b]indol-1-yl)phenoxy)azetidin-1-yl)ethan-1-ol]
28 | ≤ 0.025 | C[C@@H]1Cc2c([nH]c3ccccc23)[C@@H](c2ccc(OC3CN(C4CC4)C3)cc2)N1C12CC(C1)C2 [Compound 47, (1R,3R)-2-(bicyclo[1.1.1]pentan-1-yl)-1-(4-((1-cyclopropylazetidin-3-yl)oxy)phenyl)-3-methyl-2,3,4,9-tetrahydro-1H-pyrido[3,4-b]indole]
